Results on one molecule are retold here after article PMC2897805, “Evolution of AANAT: expansion of the gene family in the cephalochordate amphioxus” (2010).

The IC50 is the point on the concentration scale where inhibition reaches its midpoint.

The test deals with T1, bfAANATα (Branchiostoma floridae, UniProt B9TUB5).
T1 construct: gene AANATalpha; full-length cDNA clone from B. floridae head, GST fusion (pGEX 4T-1), E. coli BL21Gold(DE3) pLysS
T1 sequence (B9TUB5 1-247): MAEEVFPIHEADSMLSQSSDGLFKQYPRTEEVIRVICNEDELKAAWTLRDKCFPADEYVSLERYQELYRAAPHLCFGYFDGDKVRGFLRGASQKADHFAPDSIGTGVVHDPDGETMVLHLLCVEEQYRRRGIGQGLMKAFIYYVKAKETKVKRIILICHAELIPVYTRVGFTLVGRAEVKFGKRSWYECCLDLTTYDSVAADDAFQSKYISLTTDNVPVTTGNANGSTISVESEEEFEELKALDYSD
Nature of the test: acetyltransferase activity assay, recombinant GST fusion; also displaces CoA-HNE. It counts as biochemical.

As for `CC(C)(CO[P@@](=O)(O)O[P@@](=O)(O)OC[C@H]1O[C@@H](n2cnc3c(N)ncnc32)[C@H](O)[C@@H]1OP(=O)(O)O)[C@@H](O)C(=O)NCCC(=O)NCCSCC(=O)NCCc1c[nH]c2ccccc12` [CoA-T], the IC50 was found to be 3 µM.
